Experimental data published in patent US20240408064A1, “RAS INHIBITORS, COMPOSITIONS AND METHODS OF USE THEREOF” (GENETOLEAD INC., priority 2021, published 2024).
Values joined by “and” are separate entries in the source; they are usually repeats but may differ in a detail not shown here. Identical values can stand only once.

How the values were obtained:
HRas^G12V [1] = target: T1, HRas^G12V (Homo sapiens (Human), UniProt P01112, G12V); test: 19F T2-CPMG NMR score; assay type: binding
Experimental: (§1) All NMR experiments were collected using 3 mm NMR tubes on a 600 MHz Bruker Avance III spectrometer equipped with a QCI helium cryoprobe and a SampleJet sample changer. The buffer used for NMR experiments was 25 mM sodium phosphate pH 7.4, 150 mM NaCl, 5 mM MgCl2, 1 mM TCEP-d16, 10% D2O. Data were processed using Bruker TopSpin.
(§2) Since the fragment library was curated using phosphate buffer, 25 mM sodium phosphate pH 7.4, 150 mM NaCl, 5 mM MgCl2, 1 mM TCEP-d16, 10% D2O Fresh TCEP was used for experiments. Screening was performed using ^1H-decoupled 1D ^19F experiment Bruker experiment (zgfhigqn.2) with 64 scans and a relaxation delay of 5 seconds. 50 μM HRas^G12V and 240 μM of each fragment in pools (mixtures) were used.
(§3) Hit confirmation was performed using the same ^19F experiment as the screen. Ligand-observed 1D ^1H, protein-observed 1D ^1H, ^1H T2-CPMG as well as Saturation Transfer Difference (STD) experiments were also run on the same samples. Ligand-observed 1D ^1H was run using the standard Bruker sequence with excitation sculpting (zgesgp) with a relaxation delay of 10 seconds and 16 scans per spectrum. Protein-observed 1D ^1H was performed using the same sequence with a relaxation delay of 1 second and 256 scans in order to increase the signal-to-noise of the protein resonances, while keeping the experimental time relatively short. The ^1H T2-CPMG experiment employed a modified version of the Bruker 1D ^1H zgesgp experiment with the addition of a CPMG pulse train after the first 90° excitation pulse. Total duration for each spin echo was fixed at 1 ms (τ=500 μs), while the number of echoes in the pulse train was varied according to the total time (T). The number of scans for each spectrum was 4 and eight delay times were run on each sample, ranging from 1 ms to 800 ms.
Because of its power to probe the intrinsically weak interactions (Kd) between targets and low-molecular weight fragments, NMR fragment-based lead discovery (FBLD) is a very useful biophysical method in early stage drug discovery, especially for challenging target proteins; including those with shallow binding pockets. Since FBLD screens are performed using low-molecular weight compounds (fragments) with lower structural complexity, the same chemical space can be covered using a smaller number of drug-like fragments versus use of large libraries of higher-molecular weight lead-like compounds as in high throughput screening (HTS) campaigns. Therefore, FBLD has a much higher hit rate than HTS using only several hundred to several thousand compounds in comparison with approximately 1 million compounds for HTS. Also, the small size of the compounds screened in FBLD means a better chance to fully match the interactions with small or transient pockets within the target protein, where these less tractable pockets cannot be accessed with standard classical HTS methods. […] We expect this methodology to be more advantageous than classical HTS methods for expediting the time from hit to lead (H2L) and allows for rapid access to high quality leads with lower attrition rates in subsequent lead optimization (LO) campaigns toward pre-clinical candidate selection. FBLD screening by NMR involves a “consensus binding” approach where several distinct NMR experiments (DLB, STD, CPMG) are applied along with a free-state aggregation detection method (T2-CPMG) to rank the compounds for their affinity to the receptor (HRAS in this case) whilst simultaneously monitoring the solution behavior and critical quality attributes of each compound. The latter helps to eliminate artifact binders which are highly problematic. We performed a fluorine screen involving 461 compounds that were derived from a highly curated fragment library. Moreover, two-dimensional ^15N HSQC NMR was also used to validate ligand-binding sites on the target protein. […]

HRas^G12V [2] = target: T1, HRas^G12V; test: 19F DLB (ligand-observed 19F NMR) score; assay type: binding; parameters: scale not given here
Experimental: as §1, §2
as §3, with “ms. […]” for “ms.”

T1 sequence (P01112 1-166 G12V): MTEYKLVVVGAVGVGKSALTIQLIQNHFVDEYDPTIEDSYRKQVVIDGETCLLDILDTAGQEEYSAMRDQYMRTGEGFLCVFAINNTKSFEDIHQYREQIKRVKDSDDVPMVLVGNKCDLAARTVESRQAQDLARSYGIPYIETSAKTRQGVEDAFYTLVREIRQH

Structure (SMILES) | 19F T2-CPMG Score (HRas^G12V [1]) | 19F DLB Score (HRas^G12V [2])
COC(=O)C1CN(C(=O)Cc2c[nH]c3cc(F)ccc23)C1 [Compound 10087, methyl 1-(2-(6-fluoro-1H-indol-3-yl)acetyl) azetidine-3-carboxylate] | 13.65 | 2.16
O=C(C1CCNCC1)N1CCC(c2c[nH]c3cc(F)ccc23)C1 (stereo not drawn) [Compound 11038] | – | 2.37
O=C(NCCc1c[nH]c2cc(F)ccc12)c1ccc(F)cc1 [Compound 10039] | 20.33 | 0.96
CC(=O)N1CCC(C(=O)N2CCC(c3c[nH]c4cc(F)ccc34)C2)CC1 (stereo not drawn) [Compound 11024] | 9.57 | 1.89
O=C(Cc1c[nH]c2cc(F)ccc12)Nc1ccc2c(c1)OCO2 [Compound 10059] | 18.99 | 3.22
CC(=O)Nc1cccc(C(=O)N2CCC(c3c[nH]c4cc(F)ccc34)CC2)c1 [Compound 11020] | 15.24 | 2.23
O=C1CN(C(=O)Cc2c[nH]c3cc(F)ccc23)CCN1 [Compound 10145] | 16.13 | 1.64
CN1CCC(NC(=O)Cc2c[nH]c3cc(F)ccc23)C(C(=O)O)C1 (stereo not drawn) [Compound 10117, 4-(2-(6-fluoro-1H-indol-3-yl)acetamido)-1-methylpiperidine-3-carboxylic acid] | 10.14 | 1.54
CC1CN(C(=O)Cc2n[nH]c3cc(F)ccc23)C1 [Compound 10144, 2-(6-fluoro-1H-indazol-3-yl)-1-(3-methylazetidin-1-yl)ethan-1-one] | 9.44 | 1.93
O=C1C[C@H](c2c[nH]c3cc(F)ccc23)C(=O)N1 (single isomer, unassigned) [Compound 11039] | 39.34 | 3.59
O=C(NCCc1c[nH]c2cc(F)ccc12)[C@H]1CCCO1 [Compound 10013] | 12.62 | 2.09
O=C(C1CCC(O)CC1)N1CCC(c2c[nH]c3cc(F)ccc23)C1 (stereo not drawn) [Compound 11019] | 12.9 | 2.2
O=C(Cc1c[nH]c2cc(F)ccc12)N1C[C@H]2CC[C@@H](C1)O2 [Compound 10122] | 9.62 | 1.68
CCOC(=O)[C@@H]1CCCCN1C(=O)Cc1c[nH]c2cc(F)ccc12 [Compound 10126] | 13.7 | 4.22
O=C(O)CC(c1ccc(F)cc1F)c1c[nH]c2cc(F)ccc12 (stereo not drawn) [Compound 11056] | – | Non conclusive
O=C(O)C(NCc1cncc(Br)c1)c1c[nH]c2cc(F)ccc12 (stereo not drawn) [Compound 11061] | – | Non conclusive
COC1CN(C(=O)Cc2c[nH]c3cc(F)ccc23)C1 [Compound 10081] | 15.91 | 2.15
COCC1(O)CN(C(=O)Cc2c[nH]c3cc(F)ccc23)C1 [Compound 10089, 2-(6-fluoro-1H-indol-3-yl)-1-(3-hydroxy-3-(methoxymethyl)azetidin-1-yl)ethan-1-one] | 9.84 | 1.89
O=C(Cc1c[nH]c2cc(F)ccc12)Nc1ncccn1 [Compound 10078, 2-(6-fluoro-1H-indol-3-yl)-N-(pyrimidin-2-yl) acetamide] | 11.04 | 2.07
CN(C)Cc1cc2ccc(F)cc2[nH]1 [Compound 11049] | – | Non conclusive
O=C(c1cccc(F)c1)N1CCC(c2c[nH]c3cc(F)ccc23)C1 (stereo not drawn) [Compound 11022] | 5.71 | 3.43
O=C(Cc1c[nH]c2cc(F)ccc12)Nc1ccc2[nH]ccc2c1 [Compound 10042] | 37.91 | 2.72

Structure (SMILES) | 19F T2-CPMG Score (HRas^G12V [1]) | 19F DLB Score (HRas^G12V [2])
CC(c1ccncc1)N(C)C(=O)Cc1c[nH]c2cc(F)ccc12 (stereo not drawn) [Compound 10100, 2-(6-fluoro-1H-indol-3-yl)-N-methyl-N-(1-(pyridin-4-yl)ethyl)acetamide] | 9.66 | 1.73
CCOC(=O)C1CCN(C(=O)Cc2c[nH]c3cc(F)ccc23)CC1 [Compound 10132] | 13.29 | 2.01
CCC(C(=O)N1CC(C)C1)c1c[nH]c2cc(F)ccc12 (stereo not drawn) [Compound 11005] | 16.59 | 3.19
CC1CN(C)CCC1NC(=O)Cc1c[nH]c2cc(F)ccc12 (stereo not drawn) [Compound 10099, N-(1,3-dimethylpiperidin-4-yl)-2-(6-fluoro-1H-indol-3-yl)acetamide] | 11.85 | 1.4
CCOC(=O)[C@H]1CCCCN1C(=O)Cc1c[nH]c2cc(F)ccc12 [Compound 10128] | 13.67 | 2.85
CC1CN(C(=O)C(C#N)c2c[nH]c3cc(F)ccc23)C1 (stereo not drawn) [Compound 11033] | – | 6.06
CN(C)CCOC1CN(C(=O)Cc2c[nH]c3cc(F)ccc23)C1 [compound 10110] | 25.25 | 2.87
O=C(Cc1c[nH]c2cc(F)ccc12)N1CC2(COC2)C1 [Compound 10069] | 21.31 | 2.54
O=C(C1CCCNC1)N1CCC(c2c[nH]c3cc(F)ccc23)CC1 (stereo not drawn) [Compound 11048] | – | 3.29
CCOC(=O)[C@@H]1CCCN(C(=O)Cc2c[nH]c3cc(F)ccc23)C1 [Compound 10161] | 7.87 | 2.07
CC(=O)Nc1cccc(NC(=O)C(C#N)c2c[nH]c3cc(F)ccc23)c1 (stereo not drawn) [Compound 11035] | – | 5.34
CC(=O)C1CN(C(=O)Cc2c[nH]c3cc(F)ccc23)C1 [Compound 10138] | 14.25 | 1.98
O=C(C1CCNC1)N1CCC(c2c[nH]c3cc(F)ccc23)C1 (stereo not drawn) [Compound 11036] | 19.33 | 1.76
O=C(Cc1c[nH]c2cc(F)ccc12)N1CCOCC1 [Compound 10016] | – | 4.63 and 2.64
O=C(O)C(NCc1ccc(O)cc1)c1c[nH]c2cc(F)ccc12 (stereo not drawn) [Compound 11063] | – | Non conclusive
O=C(O)C(NCc1ccccc1)c1c[nH]c2cc(F)ccc12 (stereo not drawn) [Compound 11060] | – | Non conclusive
O=C(C1CCNC1)N1CCC(c2c[nH]c3cc(F)ccc23)CC1 (stereo not drawn) [Compound 11046] | – | 3.58
O=C(O)C(c1c[nH]c2cc(F)ccc12)N1CCC(O)CC1 (stereo not drawn) [Compound 11062] | – | Non conclusive
O=C(O)CCc1c[nH]c2cc(F)ccc12 [Compound 11050] | – | Non conclusive
O=C(O)CC(c1cccc(F)c1)c1c[nH]c2cc(F)ccc12 (stereo not drawn) [Compound 11059] | – | Non conclusive
COc1ccc(C(CC(=O)O)c2c[nH]c3cc(F)ccc23)cc1 (stereo not drawn) [Compound 11057] | – | Non conclusive
O=C1C[C@@H](c2c[nH]c3cc(F)ccc23)C(=O)N1 (single isomer, unassigned) [Compound 11040] | – | 3.49
